{
  "source": "patent US20140179800A1",
  "about": "“Inhibition of the Survival of Bladder Cancer by Cyclohexenone Compounds from Antrodia Camphorata” (Golden Biotechnology Corporation, priority 2009, published 2014)",
  "test_system": "bladder cancer cell line TSGH-8301",
  "test": "In vitro survival assay (MTT) for anti-bladder cancer effects",
  "assay_type": "cell-based",
  "details": "TSGH-8301 human bladder carcinoma cells, 48 hours, survival rate",
  "experimental": "Inhibiting effects of bladder cancer cells by cyclohexenone compounds of Antrodia camphorata from example 1 were assessed according to the anticancer-drug screening model of National Cancer Institute (NCI). The compound 4-hydroxy-2,3-dimethoxy-6-methyl-5-(3,7,11-trimethyl-dodeca-2,6,10-trienyl)-cyclohex-2-enone from example 1 was added into the culture media of bladder cancer cell line TSGH-8301 to determine the survival rates. Survival of cell was analyzed using MTT assay. TSGH-8301 cell line was a human bladder carcinoma cell line.\nMTT assay is commonly used to analyze cell proliferation, survival rate of viable cells and cytotoxicity. MTT (3[4,5-dimethylthiazol-2-yl]-2,5-diphenyltetrazolium bromide) is a yellow dye which can be converted to water-insoluble purple formazan on the reductive cleavage of its tetrazolium ring by the succinate tetrazolium reductase in mitochondria of cells. The amount of formazan produced is used to detect the number of viable cells and calculate the survival rates.\nThe TSGH-8301 cells were cultivated in DMEM medium supplemented with 10% fetal bovine serum, 100 U/ml of Penicillin and 100 μg/ml of Streptomycin at 37° C., 5% CO2 for 24 hours. Proliferated cells were washed once with PBS, treated with 1× trypsin-EDTA, and centrifuged at 1200 rpm for 5 min. […] The absorbances were measured at 570 nm with an ELISA Reader to determine the survival rates.",
  "data": [
    {"smiles": "COC1=C(OC)C(O)C(C/C=C(\\C)CC/C=C(\\C)CCC=C(C)C)C(C)C1=O", "note": "(stereo not shown) [formula 2, 4-hydroxy-2,3-dimethoxy-6-methyl-5-(3,7,11-trimethyl-dodeca-2,6,10-trienyl)-cyclohex-2-enone]", "values": [
      {"measurement": "IC50", "value": 1.05, "unit": "µg/mL"}
    ]}
  ]
}
